Experimental data taken from patent US9834558B2, “Substituted bridged urea analogs as sirtuin modulators” (GLAXOSMITHKLINE LLC, priority 2013, dated 2017).

target: T1, SIRT1 (Homo sapiens, UniProt Q96EB6); assay: Trp mass spectrometry assay of SIRT1 activation; format: biochemical; conditions: Trp mass spectrometry assay; EC1.5 = concentration of test compound that results in 150% activation of SIRT1
T1 sequence (Q96EB6 1-747): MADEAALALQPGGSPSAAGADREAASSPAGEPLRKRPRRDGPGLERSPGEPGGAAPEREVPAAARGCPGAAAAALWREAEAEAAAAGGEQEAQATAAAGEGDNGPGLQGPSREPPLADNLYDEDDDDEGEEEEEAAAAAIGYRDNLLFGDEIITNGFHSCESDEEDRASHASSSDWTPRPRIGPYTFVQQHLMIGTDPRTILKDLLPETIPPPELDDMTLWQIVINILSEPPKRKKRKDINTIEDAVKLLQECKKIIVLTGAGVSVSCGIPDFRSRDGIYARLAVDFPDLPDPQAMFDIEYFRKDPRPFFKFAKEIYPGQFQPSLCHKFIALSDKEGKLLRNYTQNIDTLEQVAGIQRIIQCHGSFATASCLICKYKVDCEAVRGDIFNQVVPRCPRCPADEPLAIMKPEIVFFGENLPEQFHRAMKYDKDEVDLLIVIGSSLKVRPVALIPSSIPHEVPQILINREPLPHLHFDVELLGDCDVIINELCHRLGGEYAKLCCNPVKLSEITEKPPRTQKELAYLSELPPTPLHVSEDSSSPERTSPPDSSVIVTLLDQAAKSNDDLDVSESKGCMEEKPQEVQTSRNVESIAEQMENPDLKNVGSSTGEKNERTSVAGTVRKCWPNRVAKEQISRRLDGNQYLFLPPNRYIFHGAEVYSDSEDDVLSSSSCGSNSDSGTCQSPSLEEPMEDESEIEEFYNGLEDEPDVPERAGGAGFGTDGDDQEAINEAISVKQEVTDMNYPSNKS
How it was run: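 N-terminal His-tagged human SIRT1 (10 nM, E. coli BL21(DE3)) with 0.5 μM Ac-RHKK(Ac)W-NH2 peptide and 120 μM βNAD+, 25 min at 25 °C in HEPES pH 7.5, formic acid stop. OAADPR or deacetylated peptide quantified by mass spectrometry; EC1.5 (50% activity increase over control) and Percent Maximum Activation reported.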

Row | Compound | Tryp AVG EC1.5 (μM)
1 | CS(=O)(=O)Nc1cccc(-c2ccc3c(n2)N(C(=O)Nc2cnccn2)[C@H]2CCN3C2)c1 [Example 418] | B (B (EC1.5 1-25 μM))
2 | N#Cc1cc(-c2ccc3c(n2)N(C(=O)Nc2cnccn2)[C@H]2CCN3C2)ccc1F [Example 419] | A (A (EC1.5<1 μM))
3 | O=C(Nc1ccncn1)N1c2nc(N3CCCNCC3)ccc2N2CCC[C@H]1C2 [Example 420] | C (C (EC1.5>25 μM))
4 | O=C(Nc1ccncc1F)N1c2nc(-c3cccc(Cl)c3)ccc2N2CCC[C@H]1C2 [Example 421] | A (A (EC1.5<1 μM))
5 | O=C(Nc1ccccn1)N1c2nc(-c3ccnc(N4CC[C@H](F)C4)c3)ccc2N2CC[C@H]1C2 [Example 422] | A (A (EC1.5<1 μM))
6 | O=C(Nc1cnccn1)N1c2nc(-c3ccnc(N4CCC(F)(F)C4)c3)ccc2N2CC[C@H]1C2 [Example 423] | A (A (EC1.5<1 μM))
7 | COc1cc(NC(=O)N2c3nc(-c4ccnc(N5CC[C@@H](F)C5)c4)ccc3N3CC[C@H]2C3)ncn1 [Example 424] | B (B (EC1.5 1-25 μM))
8 | O=C(Nc1ccc(F)cn1)N1c2nc(-c3ccnc(N4CCC(F)(F)C4)c3)ccc2N2CC[C@H]1C2 [Example 425] | A (A (EC1.5<1 μM))
9 | N#Cc1ccccc1-c1ccc2c(n1)N(C(=O)Nc1cccnn1)[C@H]1CCCN2C1 [Example 426] | B (B (EC1.5 1-25 μM))
10 | Cc1nc(NC(=O)N2c3nc(-c4cncc(C(F)(F)F)c4)ccc3N3CCC[C@H]2C3)sc1C [Example 427] | A (A (EC1.5<1 μM))
11 | O=C(CCCC[C@@H]1SCC2NC(=O)NC21)NCCCCCC(=O)NCc1ccc(NC(=O)N2c3nc(-c4cccc(C(F)(F)F)c4)ccc3N3CC[C@H]2C3)cc1 (stereo partly shown) [Example 428] | A (A (EC1.5<1 μM))
12 | NCc1ccc(NC(=O)N2c3nc(-c4cccc(C(F)(F)F)c4)ccc3N3CC[C@H]2C3)cc1 [Example 429] | B (B (EC1.5 1-25 μM))
13 | O=C(CCCC[C@@H]1SCC2NC(=O)NC21)NCCCCCC(=O)NCc1ccc(NC(=O)N2c3nc(-c4cccc(C(F)(F)F)c4)ccc3N3CCC[C@H]2C3)cc1 (stereo partly shown) [Example 430] | A (A (EC1.5<1 μM))
14 | O=C(Nc1ccc(F)cn1)N1c2nc(-c3cncc(F)c3)ccc2N2CCC[C@H]1C2 [Example 431] | A (A (EC1.5<1 μM))
15 | O=C(Nc1cnccn1)N1c2nc(-c3cncc(F)c3)ccc2N2CCC[C@H]1C2 [Example 432] | B (B (EC1.5 1-25 μM))
16 | CS(=O)(=O)N1CCCN(c2ccc3c(n2)N(C(=O)Nc2ccncn2)[C@H]2CCCN3C2)CC1 [Example 433] | B (B (EC1.5 1-25 μM))
17 | CC(=O)N1CCCN(c2ccc3c(n2)N(C(=O)Nc2ccncn2)[C@H]2CCCN3C2)CC1 [Example 434] | C (C (EC1.5>25 μM))
18 | O=C(Nc1cnccn1)N1c2nc(-c3ccc(Cl)c(C(F)(F)F)c3)ccc2N2CC[C@H]1C2 [Example 435] | A (A (EC1.5<1 μM))
19 | O=C(Nc1cnccn1)N1c2nc(-c3ccnc(N4CC[C@H](F)C4)c3)ccc2N2CC[C@H]1C2 [Example 436] | A (A (EC1.5<1 μM))
20 | COc1cc(NC(=O)N2c3nc(-c4ccnc(N5CC[C@H](F)C5)c4)ccc3N3CC[C@H]2C3)ncn1 [Example 437] | B (B (EC1.5 1-25 μM))
21 | N#Cc1ccccc1-c1ccc2c(n1)N(C(=O)Nc1cccnc1)[C@H]1CCCN2C1 [Example 438] | B (B (EC1.5 1-25 μM))

Row | Compound | Tryp AVG EC1.5 (μM)
22 | N#Cc1ccccc1-c1ccc2c(n1)N(C(=O)Nc1cncc(F)c1)[C@H]1CCCN2C1 [Example 439] | B (B (EC1.5 1-25 μM))
23 | COc1cc(NC(=O)N2c3nc(-c4ccccc4C#N)ccc3N3CCC[C@H]2C3)ncn1 [Example 440] | C (C (EC1.5>25 μM))
24 | O=C(Nc1ccccn1)N1c2nc(-c3cccnc3)ccc2N2CCC[C@H]1C2 [Example 441] | B (B (EC1.5 1-25 μM))
25 | COc1cc(NC(=O)N2c3nc(-c4cccnc4)ccc3N3CCC[C@H]2C3)ncn1 [Example 442] | B (B (EC1.5 1-25 μM))
26 | O=C(Nc1cnccn1)N1c2nc(-c3cccc(Cl)c3)cc(O)c2N2CCC[C@H]1C2 [Example 443] | B (B (EC1.5 1-25 μM))
27 | CC(C)(C)OC(=O)NCc1ccc(NC(=O)N2c3nc(-c4cccc(C(F)(F)F)c4)ccc3N3CCC[C@H]2C3)cc1 [Example 445] | A (A (EC1.5<1 μM))
28 | COC(=O)N1CCCN(c2ccc3c(n2)N(C(=O)Nc2ccncn2)[C@H]2CCCN3C2)CC1 [Example 446] | B (B (EC1.5 1-25 μM))
29 | CC(C)N1CCCN(c2ccc3c(n2)N(C(=O)Nc2ccncn2)[C@H]2CCCN3C2)CC1 [Example 447] | C (C (EC1.5>25 μM))
30 | O=C(Nc1ccccn1)N1c2nc(-c3ccnc(N4CC[C@@H](F)C4)c3)ccc2N2CC[C@H]1C2 [Example 448] | B (B (EC1.5 1-25 μM))
31 | N#Cc1ccccc1-c1ccc2c(n1)N(C(=O)Nc1ccccn1)[C@H]1CCCN2C1 [Example 449] | B (B (EC1.5 1-25 μM))
32 | N#Cc1ccccc1-c1ccc2c(n1)N(C(=O)Nc1cnccn1)[C@H]1CCCN2C1 [Example 450] | B (B (EC1.5 1-25 μM))
33 | N#Cc1ccccc1-c1ccc2c(n1)N(C(=O)Nc1ccncn1)[C@H]1CCCN2C1 [Example 451] | B (B (EC1.5 1-25 μM))
34 | O=C(Nc1cnccn1)N1c2nc(-c3cncc(C(F)(F)F)c3)ccc2N2CCC[C@H]1C2 [Example 452] | A (A (EC1.5<1 μM))
35 | O=C(Nc1cncc(F)c1)N1c2nc(-c3cccnc3)ccc2N2CCC[C@H]1C2 [Example 453] | B (B (EC1.5 1-25 μM))
36 | O=C(Nc1cnccn1)N1c2nc(-c3cccnc3)ccc2N2CCC[C@H]1C2 [Example 454] | B (B (EC1.5 1-25 μM))
37 | O=C(Nc1cccnc1)N1c2nc(-c3cccnc3)ccc2N2CCC[C@H]1C2 [Example 455] | B (B (EC1.5 1-25 μM))
38 | O=C(Nc1ccncn1)N1c2nc(-c3cccnc3)ccc2N2CCC[C@H]1C2 [Example 456] | B (B (EC1.5 1-25 μM))
39 | O=C(Nc1cccnn1)N1c2nc(-c3cccnc3)ccc2N2CCC[C@H]1C2 [Example 457] | B (B (EC1.5 1-25 μM))
40 | CN(C)c1ccc(-c2ccc3c(n2)N(C(=O)Nc2cnccn2)[C@H]2CCN3C2)cn1 [Example 458] | B (B (EC1.5 1-25 μM))
41 | N#Cc1cncc(-c2ccc3c(n2)N(C(=O)Nc2cnccn2)[C@H]2CCN3C2)c1 [Example 459] | A (A (EC1.5<1 μM))

same assay, conditions: Trp mass spectrometry assay; concentration of test compound giving 150% activation of SIRT1

Row | Compound | Tryp AVG EC1.5 (μM)
42 | O=C(Nc1cnccn1)N1c2nc(-c3cc(F)c(F)c(F)c3)ccc2N2CC[C@H]1C2 [Example 416] | C (C (EC1.5>25 μM))
43 | O=C(Nc1cnccn1)N1c2nc(-c3cncc(Cl)c3)ccc2N2CCC[C@H]1C2 [Example 417] | A (A (EC1.5<1 μM))

same assay, conditions: Trp mass spectrometry assay; percent maximum fold activation of SIRT1; read-out: Tryp % Fold Act

Row | Compound | Emax [%]
44 | O=C(Nc1ccccn1)N1c2nc(-c3ccnc(N4CC[C@H](F)C4)c3)ccc2N2CC[C@H]1C2 [Example 422] | > 150
45 | O=C(Nc1cnccn1)N1c2nc(-c3cccc(Cl)c3)cc(O)c2N2CCC[C@H]1C2 [Example 443] | > 150
46 | O=C(Nc1cccnn1)N1c2nc(-c3cccnc3)ccc2N2CCC[C@H]1C2 [Example 457] | > 150
